# In US20080200403A1, “9A-Carbamoyl and Thiocarbamoyl Azalides with Anti-Inflammatory Activity” (GLAXOSMITHKLINE, priority 2005, published 2008):
# Like-named read-outs stand apart in the source and are kept apart here.
# Assays:
# Assay type in all cases: cell-based
# [1] = test system: TNF-α; assay: Inhibition of TNF-α production by stimulated human peripheral blood leukocytes in vitro; conditions: PBL; for inhibition at 10 µM / inhibition at 50 µM: Homo sapiens, Leukocyte, read-out: Percentage of inhibition of TNF-α production
# Description: (§1) Test substances used in in vitro experiments were dissolved in dimethyl sulfoxide (DMSO) (Kemika, Croatia) at concentrations of 50 mM and 10 mM, and were further diluted to final concentrations of 50 μM and 10 μM in 1 mL Dulbecco's modified Eagle medium (DMEM) supplemented with 1% heat inactivated fetal bovine serum (FBS), 1% L-glutamine, 50 U/ml penicillin, 50 μg/ml streptomycin and 2.5 μg/mL Fungizone (amphotericin B). Media and all media supplements were purchased from Gibco, Australia, except the FBS was purchased from Sigma, USA.
# (§2) Peripheral blood leukocytes (PBL) were obtained from venous blood of healthy volunteers by sedimentation on 2% dextran T-500 (Amersham Biosciences, USA) and subsequent centrifugations of leukocyte rich plasma.
# (§3) Peripheral blood leukocytes (PBL), isolated as described above, were seeded in a 48-well plate at a concentration of 3 to 5×10^6 cell per well in culture medium consisting of RPMI 1640 medium (Institute of Immunology, Croatia) supplemented with 10% heat-inactivated fetal calf serum (FCS, Biowhittaker, USA), 100 U/ml penicillin (Gibco, Australia), 100 μg/ml streptomycin (Gibco, Australia) and 2 mM L-glutamine (Gibco, Australia), and preincubated with the test compounds for 2 h at 37° C., in an atmosphere of 5% CO2, and 90% humidity. Then, stimuli (Sigma, USA) were added to a final concentration of 2 μg/mL lipopolysaccharide (LPS), 1 μg/mL phorbol 12-myristate 13-acetate (PMA) or 120 μg/mL zymosan. Samples were incubated overnight under conditions described above. At the end of incubation, the supernatants were transferred to eppendorf tubes and centrifuged for 10 min at 1500×g. Concentrations of human TNF-α, IL-1β, IL-6 and IL-8 were determined in cell supernatants by sandwich ELISA, using capture and detection antibodies (R&D Systems, Minneapolis, Minn.) according to the manufacturer's recommendations.
# (§4) Inhibition (as percentage) was calculated using the following formula: % inhibition=(1−concentration of cytokines in sample/concentration of cytokines in positive control)×100. The positive control refers to stimulated samples, not treated with substances.
# [2] = test system: IL-6; assay: Inhibition of IL-6 production by stimulated human peripheral blood leukocytes in vitro; conditions: PBL; for inhibition at 10 µM / inhibition at 50 µM: Homo sapiens, Leukocyte, read-out: Percentage of inhibition of IL-6 production
# Description: as §1, §2, §3, §4
# [3] = test system: human peripheral blood mononuclear cells (PBMC); assay: Human T-cell proliferation in vitro (3H-thymidine incorporation); conditions: for inhibition at 10 µM / inhibition at 50 µM: Homo sapiens, PBMC, read-out: Percentage of inhibition of proliferation of stimulated PBMC
# Description: Influence of substances at two different concentrations (50 μM and 10 μM) on cell proliferation of human peripheral blood mononuclear cells (PBMC) was assessed.
# Heparinized peripheral blood was obtained from healthy donors, and PBMC were isolated by Histopaque 1077 (Sigma, USA) density centrifugation at 400×g for 30 minutes. 5×10^4 cells/well were cultured for 3 days in the RPMI medium as described above, in the presence (positive control) or absence (negative control) of stimulators [PHA (2.5 μg/mL) (Sigma, USA), or both PMA (10 ng/mL) (Sigma, USA) and ionomycin (500 ng/mL) (Calbiochem, USA)], and in the presence of the test compounds, at 37° C. in an atmosphere of 5% CO2 and 90% humidity. The cells were pulsed with 1 μCi of ^3H-thymidine (Amersham, USA) per well during the last 18 h of the culture, and were harvested on the 96-well filter (Packard Bioscience, USA) using a multiple cell harvester (Packard, USA). The incorporation of ^3H-thymidine in activated cells were measured using TopCount NXT (Packard, USA).
# Inhibition (as percentage) was calculated using the following formula: % inhibition=(1−(^3H)thymidine incorporation expressed in counts per minute (cpm) in sample/(^3H)thymidine incorporation expressed in cpm in positive control)×100
# where positive control refers to stimulated samples, not treated with substances.
# [4] = test system: IL-1α; assay: Inhibition of IL-1 production by stimulated human peripheral blood leukocytes in vitro; conditions: PBL; for inhibition at 10 µM / inhibition at 50 µM: Homo sapiens, Leukocyte, read-out: Percentage of inhibition of IL-1α production
# [5] = test system: IL-8; assay: Inhibition of IL-8 production by stimulated human peripheral blood leukocytes in vitro; conditions: PBL; for inhibition at 10 µM / inhibition at 50 µM: Homo sapiens, Leukocyte, read-out: Percentage of inhibition of IL-8 production
# Description: as §1, §2, §3, §4
# [6] = zymosan stimulated, compound 10 μM
# [7] = zymosan stimulated, compound 50 μM
# [8] = PMA + ionomycin stimulated, compound 10 μM
# [9] = PMA + ionomycin stimulated, compound 50 μM
structure (smiles),measurement,setting,value
CC[C@H]1OC(=O)[C@H](C)[C@@H](O[C@H]2C[C@@](C)(OC)[C@@H](O)[C@H](C)O2)[C@H](C)[C@@H](O[C@@H]2O[C@H](C)C[C@H](N(C)C)[C@H]2O)[C@](C)(O)C[C@@H](C)CN(C(=S)Nc2cccc(Br)c2)[C@H](C)[C@@H](O)[C@]1(C)O [Compound 6],inhibition at 10 µM,"[1]; LPS stimulated, compound 10 μM",74%
same,inhibition at 50 µM,"[1]; LPS stimulated, compound 50 μM",100%
same,inhibition at 10 µM,"[1]; PMA stimulated, compound 10 μM",73%
same,inhibition at 50 µM,"[1]; PMA stimulated, compound 50 μM",100%
same,inhibition at 10 µM,[1]; [6],36%
same,inhibition at 50 µM,[1]; [7],98%
same,inhibition at 10 µM,"[2]; LPS stimulated, compound 10 μM",59%
same,inhibition at 50 µM,"[2]; LPS stimulated, compound 50 μM",100%
same,inhibition at 10 µM,[2]; [6],6%
same,inhibition at 50 µM,[2]; [7],100%
same,inhibition at 10 µM,"[3]; PHA stimulated, compound 10 μM",0%
same,inhibition at 50 µM,"[3]; PHA stimulated, compound 50 μM",100%
same,inhibition at 10 µM,[3]; [8],0%
same,inhibition at 50 µM,[3]; [9],100%
same,inhibition at 10 µM,"[4]; LPS stimulated, compound 10 μM",64%
same,inhibition at 50 µM,"[4]; LPS stimulated, compound 50 μM",98%
same,inhibition at 10 µM,"[4]; PMA stimulated, compound 10 μM",79%
same,inhibition at 50 µM,"[4]; PMA stimulated, compound 50 μM",100%
same,inhibition at 10 µM,[4]; [6],67%
same,inhibition at 50 µM,[4]; [7],89%
same,inhibition at 10 µM,"[5]; LPS stimulated, compound 10 μM",43%
same,inhibition at 50 µM,"[5]; LPS stimulated, compound 50 μM",100%
same,inhibition at 10 µM,"[5]; PMA stimulated, compound 10 μM",23%
same,inhibition at 50 µM,"[5]; PMA stimulated, compound 50 μM",100%
same,inhibition at 10 µM,[5]; [6],41%
same,inhibition at 50 µM,[5]; [7],71%
CC[C@H]1OC(=O)[C@H](C)[C@@H](O)[C@H](C)[C@@H](O[C@@H]2O[C@H](C)C[C@H](N(C)C)[C@H]2O)[C@](C)(O)C[C@@H](C)CN(C(=O)NCc2ccccc2)[C@H](C)[C@@H](O)[C@]1(C)O [Compound 8],Percentage of inhibition of TNF-α production,"[1]; LPS stimulated, compound 10 μM",58%
same,Percentage of inhibition of TNF-α production,"[1]; LPS stimulated, compound 50 μM",30%
same,Percentage of inhibition of TNF-α production,"[1]; PMA stimulated, compound 10 μM",56%
same,Percentage of inhibition of TNF-α production,"[1]; PMA stimulated, compound 50 μM",54%
same,Percentage of inhibition of TNF-α production,[1]; [6],16%
same,Percentage of inhibition of TNF-α production,[1]; [7],0%
same,Percentage of inhibition of IL-6 production,"[2]; LPS stimulated, compound 10 μM",60%
same,Percentage of inhibition of IL-6 production,"[2]; LPS stimulated, compound 50 μM",82%
same,Percentage of inhibition of IL-6 production,[2]; [6],20%
same,Percentage of inhibition of IL-6 production,[2]; [7],18%
same,Percentage of inhibition of proliferation of stimulated PBMC,"[3]; PHA stimulated, compound 10 μM",0%
same,Percentage of inhibition of proliferation of stimulated PBMC,"[3]; PHA stimulated, compound 50 μM",0%
same,Percentage of inhibition of proliferation of stimulated PBMC,[3]; [8],0%
same,Percentage of inhibition of proliferation of stimulated PBMC,[3]; [9],0%
same,Percentage of inhibition of IL-1α production,"[4]; LPS stimulated, compound 10 μM",42%
same,Percentage of inhibition of IL-1α production,"[4]; LPS stimulated, compound 50 μM",40%
same,Percentage of inhibition of IL-1α production,"[4]; PMA stimulated, compound 10 μM",26%
same,Percentage of inhibition of IL-1α production,"[4]; PMA stimulated, compound 50 μM",0%
same,Percentage of inhibition of IL-1α production,[4]; [6],16%
same,Percentage of inhibition of IL-1α production,[4]; [7],17%
same,Percentage of inhibition of IL-8 production,"[5]; LPS stimulated, compound 10 μM",48%
same,Percentage of inhibition of IL-8 production,"[5]; LPS stimulated, compound 50 μM",0%
same,Percentage of inhibition of IL-8 production,"[5]; PMA stimulated, compound 10 μM",37%
same,Percentage of inhibition of IL-8 production,"[5]; PMA stimulated, compound 50 μM",0%
same,Percentage of inhibition of IL-8 production,[5]; [6],0%
same,Percentage of inhibition of IL-8 production,[5]; [7],0%
